Measurements reported in patent US6855490B2, “Method for attaching biological molecules to a glass surface” (Medical Discovery Partners LLC, priority 1999, dated 2005).
Primed or numbered codes have the meaning given here. FITC′ = fluorescein group attached to the epsilon side chain of lysine

How the values were obtained:
1D5 monoclonal antibody [1] = assay: Fluorescence polarization assay of synthetic ER peptides; parameters: species or system mouse; conditions: binding to 1D5 monoclonal antibody, FITC-labelled peptide
Method: Large quantities of each of the selected phage are grown and nucleic acid extracted for sequence analysis. Based on the nucleotide sequence coding for the inserted ten-mer peptide, corresponding peptides are synthesized. Numerous commercial vendors provide peptide synthesis capabilities. The binding affinity of each of the selected peptide sequences for their antibodies is determined using Scatchard analysis. The percentage of antibodies binding to the peptide can be ascertained using fluorescence polarization analysis, provided that the peptide is fluorescently labeled. The specificity of binding for each peptide antigen mimic is tested using irrelevant, isotype-matched antibodies.
(§1) Three synthetic peptides (designated as ER peptide 3, ER peptide 4, and ER peptide 6), that are representative of above consensus phage sequence, were synthesized (by SynPep Labs, Dublin, Calif. and Bachem Labs, King of Prussia, Pa.) and tested for specificity/affinity to 1D5 monoclonal antibody.

1D5 monoclonal antibody [2] = assay: Peptide ELISA of synthetic ER peptides; assay type: binding, mouse; conditions: compared among ER peptides 3, 4 and 6
Excerpt: as §1

Kd (1D5 monoclonal antibody [1]): ~1 nM
Substance: Ac-DFQCPYVECVVNAPGGK(FITC)GK-CONH2 (Ac-DFQCPYVECVVNAPGGK(FITC′)GK-NH2; cysteine pairing not given here) [ER peptide 3]
Peptide ELISA signal (1D5 monoclonal antibody [2]): highest signal
